# In US20120258938A1, “Enzymatic Production or Chemical Synthesis and Uses for 5,7-Dienes and UVB Conversion Products Thereof” (priority 2008, published 2012):
# Assays:
# [1] = system: AbC1 hamster melanoma cells; test: Soft agar colony formation, AbC1 melanoma; format: cell-based
# Procedure: Growth and survival of prostate cancer cells (PC3) and melanoma cells SKMEL 188 and AbC1 was determined by following their ability to form colonies in soft agar. Cells growing in monolayer culture were trypsinized and resuspended (1,000 cells/well) in 0.25 ml medium containing 0.4% agarose and 5% charcoal stripped serum (HyClone).
# Cell suspensions were added to 0.8% agar layer in 24 well plates. Compounds were added from ethanol stocks (100 μM) to final concentrations of 0.1 nM or 10 nM, in 100 μL media. Each condition was tested in quadruplicate. An ethanol solvent control (amount of ethanol equivalent to test) as well as a media-only control was included in the assay. […] […] Colonies were then counted under the microscope and number of units was calculated as number of colonies formed divided by the number of cells seeded×100.
# VDRE = test: VDRE-Luc reporter (with siRNA) in HaCaT keratinocytes; format: cell-based, human; settings: 24 h
# Procedure: HaCaT keratinocytes were transfected with VDRE-Luc (gift from Dr. That Chen (27) and with scrambled or VDR siRNA (Dharmacon, Inc., Lafayette, Mo., on-Target plus smart pool human VDR L-003448-00, on-Target plus siControl non-targeting pool D-001810-10-05) using Lipofectamine Plus (Invitrogen, Carlsbad, Calif.) in DMEM medium. PhRL-TK (expresses Renilla luciferase) served as a normalization control; Promega, Madison, Wis.). After transfection, cells were incubated for 24 hours in DMEM with 5% FBS. Cells were then transferred to fresh media containing the compounds to be tested or vehicle (ethanol) and incubated for 24 hours. Levels of VDR and beta-actin 24 h after transfection were assessed with Western blot (VDR(D-6) antibody, sc-13133, 1:400, Santa Cruz, Inc., Santa Cruz, Calif.) performed as described previously (30.).
# Construct CYP24-Luc and VDRE-Luc constructs were a generous gift from Dr. Tai Cheng, Ph.D. (Boston University Medical Campus, Core Lab Director). It was originally developed by Vaisanen et al. (27). PLuc and NFκB-Luc construct was described previously (28-29). huVDR construct was a generous gift from Dr. D. Bikle. HaCaT keratinocytes were transfected with NFκB-Luc, CYP-24-Luc, VDRE-Luc and hVDR constructs using Lipofectamine Plus (Invitrogen, Carlsbad, Calif.) in DMEM medium with firefly luciferase reporter gene plasmid and with phRL-TK.
# [2] = system: human dermal fibroblast line; test: TGF-b1 induced hyaluronan synthesis by dermal fibroblasts; format: cell-based
# From the text: There were found no significant differences in fibroblast numbers per well and no significant differences in trypan blue exclusion between control wells vs those with secosteroids range 95-100% (data not shown).
# [3] = system: U937 promonocytic leukemia cells; test: Monocytic differentiation (NBT), U937; format: cell-based, human; settings: U937, 0.1 μM
# Procedure: HL-60 human promyelocytic and U937 promonocytic leukemia cells were treated with the drugs at 0.1 μM or vehicle (negative control or 12-O-tetradecanoylphorbol-13-acetate (TPA) (positive control). Media were changed every 72 h and test substances added fresh every day. Differentiation toward monocytes-like morphology and NBT-reduction has been assessed after 5 and 7 days. Cells (2×106) were washed with PBS four times and resuspended in 200 μL of NBT solution (4 mg/mL) in water. After the addition of 200 ul of TPA solution (2 ug/ml) in PBS cells were incubated at 37° C. for 60 min in 24-well plates. Cell differentiation was assessed by intracellular blue formazan deposits. The NBT positive and negative cells were scored under light microscopy examination (40×) with a minimum of 200 cells scored.
# For spectrophotometric analysis the cells were washed twice with buffer containing cold bovine serum albumin solution (17 mg/mL BSA, 137 mmol/L, NaCl, 5 mmol/L, KCl, 0.8 mmol/L, MgSO4, […], HEPES, pH7.4) to remove unreacted NBT, and the insoluble formazan deposits in the resulting pellet were solubilized in 1 mL of a mixture containing 90% DMSO, 0.1% SDS and 0.01 mmol/L NaOH by vigorous vortexing. The samples were centrifuged 5 min at 1500 g to remove the cellular debris, and then the absorbance of supernatants was measured at 715 nm. Data are expressed as change in A715/106 cells.
# Col1A1 mRNA = test: Real time RT PCR Col1A1 mRNA, TGF-b1 stimulated skin fibroblasts; format: cell-based; settings: human skin fibroblasts
# Procedure: Additional studies using human skin fibroblasts were performed employing a type I collagen specific ELISA Chondrex, and real time RT PCR to quantitate type I collagen protein and Col1A1 mRNA expression in culture of human fibroblast stimulated by TGF-b1 in the presence and absence of 17,20S(OH)2pD3 and/or 20(OH)D3. These studies confirmed that Type I collagen protein production that was induced by TGF-b1 and that Col1A1 mRNA that was induced by TGF-b1 were suppressed by these analogues (FIGS. 44A-44B).
# TNFα = test: LPS-induced TNFα production by PBMC; format: cell-based; settings: normal human PBMC, LPS (10 pg/ml), 10^−8M
# WM164 = test: Flow cytometry cell cycle and subG1, WM164; format: cell-based; settings: WM164, 24 h
# Procedure: MD-MBA-231, MG-63, PC-3, and WM164 cells were seeded into Petri dishes and then incubated for 24 h with 20-hydroxycholecalciferol in DMEM medium containing 5% FBS. Then cells were fixed, DNA stained and samples read with flow cytometer as described (7). Data was analyzed with Cell Quest (BD Biosciences). Cell cycle phases were assessed in viable cell populations and subG1 contents were calculated within whole cell population.
smiles,measurement,setting,value
"C=C1CC[C@H](O)C/C1=C/C=C1\CCC[C@]2(C)[C@@H](C(C)(O)CC(O)CC(C)C)CC[C@@H]12 (stereo partly drawn) [20,23-dihydroxycholecalciferol, (5Z,7E)-9,10-secocholesta-5,7,10(19)-triene-3β,20,23-triol]",decrease of colony formation in soft agar,"[1]; AbC1, 0.1 nM",30%
same,decrease of colony formation in soft agar,"[1]; AbC1, 10 nM",approximately 50%
same,VDRE-Luc activity,"VDRE; HaCaT, 10 nM and 100 nM",Activation of VDRE
"C=C1/C(=C\C=C2/CCC[C@]3(C)[C@@H]([C@H](C)CCCC(C)(C)O)CC[C@@H]23)C[C@@H](O)C[C@@H]1O [1α,25-dihydroxycholecalciferol, (5Z,7E)-9,10-secocholesta-5,7,10(19)-triene-1α,3β,25-triol, reference compound]",TGF-b1 induced hyaluronan synthesis,[2]; 10^−10 M,inhibited TGF-b1 induced hyaluronan synthesis
"C=C1CC[C@H](O)C/C1=C/C=C1\CCC[C@]2(C)[C@@H](C(C)=O)CC[C@@H]12 [pD3, (5Z,7E)-3β-hydroxy-9,10-secopregna-5,7,10(19)-trien-20-one]",Hyaluronan CPM/Well (mean ± SEM) × 10^−5 FB,"[2]; hrTGF-b1 5 ng/ml, secosteroids at 10^−10M",135 ± 25 CPM/Well × 10^−5 FB
same,monocytic differentiation (NBT staining),[3],induce monocytic differention
"C=C1CC[C@H](O)C/C1=C/C=C1\CCC[C@@]2(C)[C@H]1CC[C@@H]2[C@@](C)(O)CCCC(C)C [20(OH)D3, (5Z,7E)-9,10-secocholesta-5,7,10(19)-triene-3β,20-diol]",TGF-b1 induced Col1A1 mRNA,Col1A1 mRNA,suppressed
same,increase in VDRE-driven luciferase activity,"VDRE; 10 nM, scrambled siRNA",~3 fold
same,TNFα production,TNFα,2609 ± 1961 pg/mL
same,G0/G1 of viable cells,WM164,70%
same,G2/M of viable cells,WM164,7
same,S of viable cells,WM164,24%
same,Viable Cells,WM164,87
same,subG1,WM164; whole cell population,13
